What was measured:
[1] = biological target: T1, alphaENaC channel (human alpha, beta and gamma subunits) (Homo sapiens, UniProt P37088+P51168+P51170); test: FLIPR membrane potential dye assay, dye loaded in absence of sodium (Protocol 1), alphaENaC-transfected HEK293 cells; type: cell-based
T1 construct: expressed in transfected cells; host or cells: HEK293, transient transfection
T1 sequence (P37088 1-669): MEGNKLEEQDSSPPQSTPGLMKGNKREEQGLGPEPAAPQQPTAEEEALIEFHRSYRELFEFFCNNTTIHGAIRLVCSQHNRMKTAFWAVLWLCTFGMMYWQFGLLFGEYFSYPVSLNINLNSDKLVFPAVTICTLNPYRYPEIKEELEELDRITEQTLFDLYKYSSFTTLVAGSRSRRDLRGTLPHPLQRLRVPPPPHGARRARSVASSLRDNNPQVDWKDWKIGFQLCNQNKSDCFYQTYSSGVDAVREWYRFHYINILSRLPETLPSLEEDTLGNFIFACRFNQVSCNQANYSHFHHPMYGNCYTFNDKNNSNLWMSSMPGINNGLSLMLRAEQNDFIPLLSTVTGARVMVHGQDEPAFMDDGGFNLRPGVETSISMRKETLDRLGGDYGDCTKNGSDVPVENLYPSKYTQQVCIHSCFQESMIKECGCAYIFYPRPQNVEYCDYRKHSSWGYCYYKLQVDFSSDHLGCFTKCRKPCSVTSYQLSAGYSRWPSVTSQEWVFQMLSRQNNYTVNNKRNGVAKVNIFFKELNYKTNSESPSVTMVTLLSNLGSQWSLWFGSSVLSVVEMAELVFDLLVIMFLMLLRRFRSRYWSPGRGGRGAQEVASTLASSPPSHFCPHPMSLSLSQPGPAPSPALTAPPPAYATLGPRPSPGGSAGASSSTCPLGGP
T1 sequence (P51168 1-640): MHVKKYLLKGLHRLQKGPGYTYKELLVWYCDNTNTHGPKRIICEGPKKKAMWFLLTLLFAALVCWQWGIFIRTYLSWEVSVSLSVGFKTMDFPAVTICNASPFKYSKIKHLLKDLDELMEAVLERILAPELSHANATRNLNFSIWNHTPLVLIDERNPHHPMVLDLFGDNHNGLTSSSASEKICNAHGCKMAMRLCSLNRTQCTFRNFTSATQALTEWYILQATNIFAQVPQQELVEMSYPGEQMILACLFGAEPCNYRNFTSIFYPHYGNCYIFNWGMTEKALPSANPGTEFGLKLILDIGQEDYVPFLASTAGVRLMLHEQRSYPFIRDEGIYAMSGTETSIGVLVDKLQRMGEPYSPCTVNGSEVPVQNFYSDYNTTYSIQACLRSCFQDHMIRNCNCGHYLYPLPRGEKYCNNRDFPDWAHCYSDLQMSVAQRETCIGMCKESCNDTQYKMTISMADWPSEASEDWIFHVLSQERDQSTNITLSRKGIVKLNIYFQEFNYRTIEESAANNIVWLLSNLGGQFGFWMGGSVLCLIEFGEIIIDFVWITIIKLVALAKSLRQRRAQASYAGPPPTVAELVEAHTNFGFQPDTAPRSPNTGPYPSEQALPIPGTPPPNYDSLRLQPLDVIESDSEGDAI
T1 sequence (P51170 1-649): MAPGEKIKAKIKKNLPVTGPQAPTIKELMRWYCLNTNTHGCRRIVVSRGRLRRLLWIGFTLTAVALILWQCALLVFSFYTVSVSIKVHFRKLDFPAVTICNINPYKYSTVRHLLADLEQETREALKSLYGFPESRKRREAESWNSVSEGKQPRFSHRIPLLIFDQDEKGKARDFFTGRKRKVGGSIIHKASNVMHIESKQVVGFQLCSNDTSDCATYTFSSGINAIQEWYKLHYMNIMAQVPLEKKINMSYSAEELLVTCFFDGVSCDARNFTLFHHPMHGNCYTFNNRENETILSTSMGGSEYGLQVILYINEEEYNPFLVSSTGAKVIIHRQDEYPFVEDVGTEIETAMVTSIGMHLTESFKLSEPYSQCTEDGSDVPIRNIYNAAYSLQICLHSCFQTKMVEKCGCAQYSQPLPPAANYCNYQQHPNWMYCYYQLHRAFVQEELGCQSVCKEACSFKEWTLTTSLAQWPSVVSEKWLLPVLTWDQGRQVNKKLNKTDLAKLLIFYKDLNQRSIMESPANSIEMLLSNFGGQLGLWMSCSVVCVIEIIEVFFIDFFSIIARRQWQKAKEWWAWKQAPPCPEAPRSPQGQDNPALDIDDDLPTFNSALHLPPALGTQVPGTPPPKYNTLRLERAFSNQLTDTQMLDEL
Source text: (§1) In this experiment HEK293 cells which were transfected with sequences encoding the human alpha, beta and gamma subunits were used to screen for the effect of amiloride on NaCl induced changes in membrane potential. […] These HEK293 cells were transiently transfected with plasmids containing the alpha, beta and gamma ENaC encoding nucleic acid sequences and then loaded with a membrane potential dye (FMP; Molecular Devices) in the absence of sodium (NaCl was replaced with NMDG) at room temperature for one hour. Cells were then stimulated with 70 mM NaCl with (red trace) or without (white trace) 6.25 micromolar amiloride. Changes in membrane potential (fluorescent signal) in HEK293 cells were monitored on a FLIPR system (Molecular Devices). […] HEK293 cells were transiently transfected with the gamma, beta, and delta subunit containing plasmids and were loaded with a membrane potential dye (FMP; Molecular Devices) in the absence of sodium (NaCl was replaced with NMDG) at room temperature for one hour. Cells were then stimulated with 70 mM NaCl with (red trace) or without (white trace) 50 micromolar amiloride. Changes in membrane potential (fluorescent signal) were monitored on a FLIPR system (Molecular Devices). […] Therein cells were prepared and treated as in Panels A and B. Increasing concentrations of amiloride were used to assess potency at inhibiting the different forms of ENaC.
This example relates to the fluorescent experiments contained in FIG. 2, Panels A, B and C. In the experiment in Panel A it can be seen that the enhancer S559 increases the NaCl-induced change in membrane potential in HEK293 cells expressing the alphaENaC channel. […] Changes in membrane potential (fluorescent signal) were monitored on a FLIPR system (Molecular Devices). […] Changes in membrane potential (Fluorescent signal) were monitored on a FLIPR system (Molecular Devices).

[2] = biological target: T2, deltaENaC channel (gamma, beta, and delta subunit) (Homo sapiens, UniProt P51168+P51170+P51172); test: FLIPR membrane potential dye assay, dye loaded in absence of sodium (Protocol 1), deltaENaC-transfected HEK293 cells; type: cell-based; conditions: 50 micromolar amiloride; 70 mM NaCl stimulus; dye loaded without sodium (NMDG)
T2 construct: expressed in transfected cells; host or cells: HEK293, transient transfection
T2 sequence (P51172 1-638 isoform P51172-1): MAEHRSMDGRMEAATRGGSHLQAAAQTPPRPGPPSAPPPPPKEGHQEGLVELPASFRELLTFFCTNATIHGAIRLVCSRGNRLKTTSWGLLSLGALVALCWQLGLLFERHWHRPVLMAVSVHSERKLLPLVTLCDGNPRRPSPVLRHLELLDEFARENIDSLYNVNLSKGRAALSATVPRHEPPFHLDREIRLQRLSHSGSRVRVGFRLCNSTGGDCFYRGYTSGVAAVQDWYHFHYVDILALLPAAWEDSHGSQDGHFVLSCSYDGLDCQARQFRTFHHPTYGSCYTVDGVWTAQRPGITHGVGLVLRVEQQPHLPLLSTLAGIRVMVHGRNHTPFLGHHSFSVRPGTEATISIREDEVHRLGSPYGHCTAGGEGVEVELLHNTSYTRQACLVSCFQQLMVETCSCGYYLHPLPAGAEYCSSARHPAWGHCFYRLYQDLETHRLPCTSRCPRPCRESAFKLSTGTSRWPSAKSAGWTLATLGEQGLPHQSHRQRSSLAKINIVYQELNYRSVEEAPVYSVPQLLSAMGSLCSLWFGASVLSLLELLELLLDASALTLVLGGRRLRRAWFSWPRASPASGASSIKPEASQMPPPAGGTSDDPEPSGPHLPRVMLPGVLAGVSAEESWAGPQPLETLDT
T2 sequence (P51168 1-640): T1 sequence (P51168 1-640)
T2 sequence (P51170 1-649): T1 sequence (P51170 1-649)
Source text: as §1

[3] = biological target: T3, alphaENaC channel (alpha, beta and gamma ENaC subunits) (Homo sapiens, UniProt P37088+P51168+P51170); test: FLIPR membrane potential dye assay, dye loaded in 140 mM NaCl (Protocol 2), alphaENaC-transfected HEK293 cells; type: cell-based; conditions: 3 micromolar amiloride
T3 construct: expressed in transfected cells; host or cells: HEK293, transient transfection
T3 sequence (P37088 1-669): T1 sequence (P37088 1-669)
T3 sequence (P51168 1-640): T1 sequence (P51168 1-640)
T3 sequence (P51170 1-649): T1 sequence (P51170 1-649)
Source text: This example relates to the fluorescent experiments contained in FIG. 2, Panels A, B and C. In the experiment in Panel A it can be seen that the enhancer S559 increases the NaCl-induced change in membrane potential in HEK293 cells expressing the alphaENaC channel. HEK293 cells were transiently transfected with plasmids containing sequences encoding the human alpha, beta, and gamma ENaC subunits and were loaded with a membrane potential dye (FMP; Molecular Devices) in the absence of sodium (NaCl was replaced with NMDG) at room temperature for one hour. Cells were then stimulated with 17.5 mM NaCl with (red trace) and without (white trace) 15 micromolar S559. Changes in membrane potential (fluorescent signal) were monitored on a FLIPR system (Molecular Devices). […] Changes in membrane potential (Fluorescent signal) were monitored on a FLIPR system (Molecular Devices).
In the experiment HEK293 cells again transfected transiently with plasmids containing the alpha, beta, and gamma ENaC subunit nucleic acid sequences and were treated as described in Example 2., Panel B (Protocol 2). Changes in membrane potential (fluorescent signal) were monitored on a FLIPR system (Molecular Devices). […] Changes in membrane potential (fluorescent signal) were monitored on a FLIPR system (Molecular Devices). […]

HEK293 cells = test: FLIPR membrane potential control in mock-transfected or un-transfected HEK293 cells (Protocol 2); type: cell-based; conditions: HEK293 transfected with mock plasmid (pUC19)
Protocol: In the experiment HEK293 cells again transfected transiently with plasmids containing the alpha, beta, and gamma ENaC subunit nucleic acid sequences and were treated as described in Example 2., Panel B (Protocol 2). Changes in membrane potential (fluorescent signal) were monitored on a FLIPR system (Molecular Devices). […] HEK293 cells were transfected with a mock plasmid (pUC19) and treated as described above. Changes in membrane potential (fluorescent signal) were monitored on a FLIPR system (Molecular Devices).
HEK293 cells transiently transfected with plasmids containing nucleic acid sequences encoding the human delta, beta and gamma ENaC subunits and were treated as described in FIG. 2; Panel B (Protocol 2).

[4] = test system: perceived human salt intensity; test: Human salty taste intensity test; type: in vivo; conditions: 300-fold (amiloride) and 3000-fold (benzamil) above IC50 for alpha beta gamma ENaC in oocytes
Source text: Unlike other mammals, amiloride only slightly reduces the intensity of sodium chloride taste, i.e., by about 15-20% when used at concentrations that specifically modulate ENaC function. […] Thus, additional non-ENaC genes are likely involved in human taste and other biological functions.

[5] = test system: perceived human salt intensity; conditions: concentrations that specifically modulate ENaC function; cited from earlier work

N=C(N)NC(=O)c1nc(Cl)c(N)nc1N [amiloride]
inhibition of NaCl induced changes in membrane potential ([1]; 6.25 micromolar amiloride, 70 mM NaCl stimulus, dye loaded without sodium (NMDG)): totally inhibited
apparent affinity on α-ENaC transfected cells relative to δ-ENaC transfected cells ([1]; dye loaded in absence of sodium, sodium add back): at least 10 fold
potency at inhibiting alphaENaC versus deltaENaC ([1]; increasing concentrations of amiloride, cells treated as in Panels A and B): more potent at inhibiting alphaENaC than deltaENaC
inhibition of NaCl induced change in membrane potential [2]: totally inhibited
block of S559 enhancer effects [3]: almost totally abolishes
effect on membrane potential in cells that do not express alphaENaC (HEK293 cells): do not exhibit any effect
effect on perceived human salt intensity [4]: did not elicit a significant effect
reduction of intensity of sodium chloride taste [5]: 15-20%

NC(=Nc1ccccc1)NC(=O)c1nc(Cl)c(N)nc1N [phenamil]
effect on perceived human salt intensity [4]: did not elicit a significant effect
